Measurements reported in publication PMC11788822, “Uncovering the potent antimicrobial activity of squaramide based anionophores – chloride transport and membrane disruption” (Chemical Science, 2025).
“And” between values parts separate entries of the source, which are not always exact repeats. Equal values may be shown once. Read-outs that look alike come from different tables or passages of the source. Marks after values point to notes of the source that are not given here.

Legend:
[1] = set-up: method as in PMID 34709282; details: Cl− transport; Reported by Gale and co-workers; cited from earlier work
[2] = Lucigenin Cl−/NO3− exchange assay in LUVs; details: Cl− transport, 0.4 mM POPC/cholesterol 7:3 LUVs, Hill fit at 270 s
Protocol: Given our objective was to use such transport behaviour as a method to disrupt anion homeostasis in bacteria, we also conducted anion transport assays in Large Unilamellar Liposomes (LUVs) using the well-established Lucigenin-based Cl^−/NO3^− exchange assay.[40] Briefly, LUVs containing the chloride sensitive dye lucigenin in a NaNO3 solution were prepared and a NaCl pulse was added to create a chloride concentration gradient. Upon addition of the putative transporter, the quenching of the fluorescence of lucigenin was monitored over time to assess Cl^− influx.
Lucigenin Cl-/NO3- anion exchange assay
LUV preparation and Lucigenin assays were carried out following procedures outlined by Valkenier and co-workers.8 Large unilamellar liposomes (LUVs) were synthesized using 1-palmitoyl-2-oleoyl-sn-glycero-3-phosphocholine (POPC)(11.2 µmol, soln. in CHCl3) and Cholesterol (4.8 µmol) mixed in a ratio of 7:3. This mixture was brought to dryness under gentle vacuum and subsequently, the mixture was rehydrated in an aqueous Lucigenin solution (1 mL, 0.8mM lucigenin in 225 mM NaNO3) and stirred for 1 h to obtain heterogeneous vesicles. After that, the vesicles underwent 9 freeze-thaw cycles and were extruded through a […] polycarbonate membrane 29 times to obtain monodisperse LUVs. A Sephadex G-100 size-exclusion column was employed to remove any unencapsulated lucigenin. The collected liposomes were diluted to 40 mL with 225 mM NaNO3 to obtain a homogeneous 0.4 mM liposome solution. Lucigenin fluorescence quenching was monitored in a time dependent manner using an Agilent Spectrofluorimeter to access Cl- influx (λ ex = 430 nm, λem = 505 nm).
Cl- transport behaviour was initiated at t=0 s by adding each compound as a solvate in DMSO followed by a 25 mM NaCl pulse (75µL, 1 M NaCl in […] NaNO3) to a 3 mL liposome solution. The data was collected for at least 600 s and then Triton X-100 (5% w/w in water) was added to lyse the liposomes, and normalize to 100% efflux. The recorded data was normalised and the fraction fluorescence intensity at 270 s of each tested concentration of transporters (mol%) was plotted against transporter concentration (mol%). The data obtained was fitted to the Hill equation to obtain the EC50 value at 270 s (the concentration to obtain the half maximum effect) by using Originlab 2024b or Graphpad Prism 10:
y = START + (END ‒ START) ∗ xn/(kn + xn)
Where n is the Hill coefficient, k presents the EC 50 value.

| Structure (SMILES) | EC50 (mol%) [1] | EC50 (mol%) [2] |
| --- | --- | --- |
| O=c1c(Nc2ccc([N+](=O)[O-])cc2)c(NC23CC4CC(CC(C4)C2)C3)c1=O [Compound 4] | 0.031 ^a mol% | – |
| O=c1c(Nc2ccc(Cl)c(Cl)c2)c(NC23CC4CC(CC(C4)C2)C3)c1=O [Compound 2] | – | 0.0993 mol% |
| O=c1c(Nc2cc(C(F)(F)F)cc(C(F)(F)F)c2)c(NC23CC4CC(CC(C4)C2)C3)c1=O [Compound 1] | – | 0.0836 mol% and 0.084 mol% |
